The target in one data set is hERG (Homo sapiens, UniProt Q12809). The conditions noted are these: background statement, no test described; cited from earlier work.
A further data set relates to Beagle dogs. The experiment in a line: Single dose toxicity in Beagle dogs. The format is in vivo. On the procedure: Formulation of the test sample: a required amount of a sample of the crystalline form A of Example 5 (the solvent used in the crystal preparation was isopropanol) was weighed and added to a mortar, polyethylene glycol-15 hydroxystearate (HS15) in an amount of 2.5% of the total volume was added, and the sample was evenly ground. The mortar was washed with a 0.5% methyl cellulose (MC) solution with grinding, until there was no visible residue. The mixture was transferred to a calibrated container, and then diluted with a 0.5% methyl cellulose solution to the volume. The solution was stirred uniformly with a magnetic stirrer to obtain a suspension, which was used as the test sample.
3 groups (4 dogs per group, half male and half female) were set in the single-dose toxicity test in Beagle dogs, and they were the vehicle control group and the low- and high-dose groups of the crystalline form A of the compound of Formula (I).

The nature of data set [1]: Stability of the crystalline form A at room temperature (XRPD). In kind it is physicochemical. The note with it: 15 days. On the procedure: X′Pert3 Powder diffractometer using Cu target radiation was employed, and the detection was performed at room temperature with Absolute scan. The detection range was 3.5° to 40° with a step size of 0.013° and a dwell time of 50 s, scan time: 1. A sample of the crystalline form A of the compound of Formula (I) was allowed to stand at room temperature, and samples were taken on Day 5 and 15 for XRPD detection.

Data set [2] in a line: DVS study (hygroscopicity) of the crystalline form A. The format is physicochemical. On the procedure: The experimental conditions for the dynamic vapor sorption (DVS) were as follows: The detection was performed with DVS Intrinsic (SMS) at 25° C. in a cycle-DMDT mode. The hygroscopicity of a sample of the crystalline form A of the compound of Formula (I) was measured through dynamic vapor sorption (DVS): the hygroscopicity thereof was measured at 25° C., 10% humidity gradient in the range of 0%-90%-0%.

The nature of data set [3]: Stability of the crystalline form A at a high temperature (XRPD). The note with it: 7 days. In kind it is physicochemical. How it is done:
X′Pert3 Powder diffractometer using Cu target radiation was employed, and the detection was performed at room temperature with Absolute scan. The detection range was 3.5° to 40° with a step size of 0.013° and a dwell time of 50 s, scan time: 1. A sample of the crystalline form A of the compound of Formula (I) was allowed to stand under vacuum at 60° C., and samples were taken on Day 2, 5 and 7, respectively, for XRPD detection.

Data set [4] is described as follows: Determination of the log P value (Sirius T3, pH-metric medium log P). The format is physicochemical. The note with it: titration from low to high pH. On the procedure: The log P value of a sample of the crystalline form A prepared in Example 5 (the solvent used in the crystal preparation was isopropanol) was measured with the Sirius T3 instrument for physical and chemical profile determination. The Sirius log P test method (pH-metric medium log P) was employed, wherein the pH-metric medium log P determination mode was selected, and the titration order was from low to high pH.

The nature of data set [5]: Stability of the crystalline form A under grinding (XRPD). In kind it is physicochemical. The conditions noted are these: ground in a mortar for 5 minutes. How it is done:
X′Pert3 Powder diffractometer using Cu target radiation was employed, and the detection was performed at room temperature with Absolute scan. The detection range was 3.5° to 40° with a step size of 0.013° and a dwell time of 50 s, scan time: 1. A sample of the crystalline form A of the compound of Formula (I) was ground at a constant speed in a mortar, and samples were taken after the grinding was performed for 2 and 5 minutes, respectively, for XRPD detection.

The nature of data set [6]: Pharmacokinetic experiment of the crystalline form A in rats. In kind it is in vivo. The note with it: both sexes, Sprague-Dawley (SD), rat, blood, 3 mg/kg. From the text: Formulation of the test sample for intravenous administration: the sample of Example 5 (the solvent used in the crystal preparation was isopropanol) was taken and dissolved in 5% DMSO+5% Solutol (HS15)+90% normal saline, to obtain the test sample solution for intravenous administration;
Formulation of the test sample for intragastric administration: the sample of Example 5 (the solvent used in the crystal preparation was isopropanol) was taken and suspended in 97.5% of 0.5% methyl cellulose (MC)+2.5% Solutol (HS15) to obtain a suspension, which was used as the test sample for intragastric administration.
12 SD rats were randomly divided into two groups, groups A and B (6 rats per group, half male and half female). The rats in Group A were each given a single intravenous injection of the sample drug; the rats in Group B were each given the sample drug through intragastric administration, and the dosages are both 3 mg/kg. The blood sampling time points for the intravenous and intragastric administration were before administration and 0.083, 0.25, 0.5, 1.0, 2.0, 4.0, 6.0, 8.0, 10, and 24 h after administration.

For another data set, the system named is SD rats. The experiment in a line: Single-dose toxicity in SD rats. In kind it is in vivo. An excerpt:
The mortar was washed with a 0.5% methyl cellulose (MC) solution with grinding, until there was no visible residue. The mixture was transferred to a calibrated container, and then diluted with a 0.5% methyl cellulose solution to the volume. The solution was stirred uniformly with a magnetic stirrer to obtain a suspension, which was used as the test sample.
4 groups (10 rats per group, half male and half female) were set in the single-dose toxicity test in SD rats, and they were the vehicle control group and the low-, medium-, and high-dose groups of the crystalline form A of the compound of Formula (I), respectively.

Data set [7] is described as follows: Determination of the solubility of the crystalline form A. The format is physicochemical. The conditions noted are these: 25±2° C., Chinese Pharmacopoeia 2015 terms. How it is done:
Test solvents: methanol, acetonitrile, ethanol, isopropanol, a 0.1 mol/L aqueous solution of hydrochloric acid and a 0.1 mol/L aqueous solution of sodium hydroxide. Test method: the investigation was conducted according to Item 15(2) of the General Notices in Volume IV of the Chinese Pharmacopoeia (2015 edition). An appropriate amount of a sample of the crystalline form A prepared in Example 5 (the solvent used in the crystal preparation was isopropanol) was weighed and added to a certain volume of the solvent at 25±2° C. The mixture was shaken strongly for 30 seconds at an interval of 5 minutes. […] It was considered to be completely soluble if none of the particles of the solute was observed.

Where [8] appears, read: po, SD rats, intragastric, single dose, n = 6.
[9] abbreviates: SD rats, intravenous, single dose, n = 6.

Each structure is given as a SMILES string.

Sequence of hERG (Q12809 whole entry): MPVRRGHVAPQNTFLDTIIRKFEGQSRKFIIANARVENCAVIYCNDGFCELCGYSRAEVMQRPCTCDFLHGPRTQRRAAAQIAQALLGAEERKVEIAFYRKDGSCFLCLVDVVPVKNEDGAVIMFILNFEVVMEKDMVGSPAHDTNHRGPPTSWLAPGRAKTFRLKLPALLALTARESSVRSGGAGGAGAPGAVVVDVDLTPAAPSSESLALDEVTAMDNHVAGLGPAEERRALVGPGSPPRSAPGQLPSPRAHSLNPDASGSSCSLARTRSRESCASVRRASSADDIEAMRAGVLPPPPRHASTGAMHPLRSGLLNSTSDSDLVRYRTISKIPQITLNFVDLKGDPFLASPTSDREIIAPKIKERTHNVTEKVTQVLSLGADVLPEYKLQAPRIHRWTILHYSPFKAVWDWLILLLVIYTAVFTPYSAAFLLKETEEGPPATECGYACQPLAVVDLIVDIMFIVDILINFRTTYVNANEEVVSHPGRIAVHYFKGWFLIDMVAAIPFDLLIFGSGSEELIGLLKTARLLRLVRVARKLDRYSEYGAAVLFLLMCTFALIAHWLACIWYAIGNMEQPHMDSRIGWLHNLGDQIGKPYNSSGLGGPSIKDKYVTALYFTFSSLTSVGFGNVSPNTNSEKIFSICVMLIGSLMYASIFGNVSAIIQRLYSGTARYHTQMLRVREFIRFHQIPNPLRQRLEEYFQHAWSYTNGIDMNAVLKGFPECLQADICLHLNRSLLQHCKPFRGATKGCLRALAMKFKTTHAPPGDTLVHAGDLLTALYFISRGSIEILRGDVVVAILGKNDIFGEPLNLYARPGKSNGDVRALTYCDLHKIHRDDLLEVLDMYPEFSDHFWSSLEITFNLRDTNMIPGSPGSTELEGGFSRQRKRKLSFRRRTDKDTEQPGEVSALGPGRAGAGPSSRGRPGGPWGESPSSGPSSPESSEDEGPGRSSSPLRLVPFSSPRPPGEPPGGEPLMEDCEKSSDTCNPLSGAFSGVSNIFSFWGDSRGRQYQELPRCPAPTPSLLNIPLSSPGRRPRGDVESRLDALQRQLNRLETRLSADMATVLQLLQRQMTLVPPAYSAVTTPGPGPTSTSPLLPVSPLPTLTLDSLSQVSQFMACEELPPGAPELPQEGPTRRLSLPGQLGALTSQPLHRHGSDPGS

As for `COC(=O)C1=C(CN2CCO[C@H](/C=C/C(=O)O)C2)NC(c2nccs2)=N[C@H]1c1ccc(F)cc1Cl` [compound of Formula (I), (E)-3-((R)-4-(((R)-6-(2-chloro-4-fluorophenyl)-5-(methoxycarbonyl)-2-(thiazol-2-yl)-3,6-dihydropyrimidin-4-yl)methyl)morpholin-2-yl)acrylic acid], the cardiotoxicity entry at hERG is “no cardiotoxicity”.
As for `COC(=O)C1=C(CN2CCO[C@H](/C=C/C(=O)O)C2)NC(c2nccs2)=N[C@H]1c1ccc(F)cc1Cl` [crystalline form A, (E)-3-((R)-4-(((R)-6-(2-chloro-4-fluorophenyl)-5-(methoxycarbonyl)-2-(thiazol-2-yl)-3,6-dihydropyrimidin-4-yl)methyl)morpholin-2-yl)acrylic acid], the “tolerability, single dose” value in the data set on Beagle dogs (Beagle dogs, intragastric, low- and high-dose groups, 14 days observation) is “well tolerated”. In the data set with Beagle dogs (dog, in vivo), the “abnormalities after 14 days” value was “no abnormalities were observed”. The “crystalline form after standing at room temperature (XRPD)” value in [1] is on record as “did not change”. The “weight increase by hygroscopy” value in data set [2] (DVS, 25° C., 80% humidity) turned out to be 0.28%. Besides, in data set [2] (weight increase within 0.2%-2%), the “hygroscopicity class (Chinese Pharmacopoeia 2015)” value is given as “slightly hygroscopic”. For the same molecule, the “crystalline form after standing under vacuum at 60° C. (XRPD)” value in data set [3] is recorded as “did not change”. The logP in [4] fell in the range of 2.4 to 2.6. In addition, the “crystalline form after grinding (XRPD)” value in data set [5] is listed as “did not change”. Moreover, the bioavailability in data set [6] (oral, rats, intragastric vs intravenous, calculated based on AUC0-∞, read-out: absolute bioavailability) is 62.4%. In data set [6] (setting [8]), this molecule had an AUC(0-inf) of 6490 ± 2950 ng·h/mL, an AUC(0-t) of 6460 ± 2940 ng·h/mL, a peak concentration (Cmax) of 3980 ± 1440 ng/mL and a half-life of 60.6 ± 15.6 min. Besides, the Tmax in [6] (po, SD rats, intragastric, single dose, n = 6, median (range in next line)) came out at 22.8 min. Further, in data set [6] (setting [9]), the AUC(0-inf) turned out to be 10400 ± 4500 ng·h/mL, the AUC(0-t) turned out to be 10400 ± 4500 ng·h/mL, the Cmax stood at 9210 ± 2100 ng/mL and the half-life was 52.8 ± 10.8 min. In the data set on SD rats (intragastric single dose, condition, body weight, food intake, hematology, blood biochemistry, gross anatomy), the “abnormalities after 14 days” value is “no abnormalities were observed”. The “tolerability, single dose” value with SD rats (intragastric, low-, medium-, high-dose groups, 14 days observation) is recorded as “well tolerated”. Also, in data set [7], the “solubility in 0.1 mol/L aqueous solution of hydrochloric acid” value is “sparingly soluble”, the “solubility in 0.1 mol/L aqueous solution of sodium hydroxide” value is reported as “sparingly soluble”, the solubility in acetonitrile entry is “soluble” and the solubility in ethanol result is reported as “soluble”. In data set [7], the solubility in isopropanol result is reported as “slightly soluble” and the solubility in methanol result is recorded as “soluble”.

For orientation: logP means the decadic logarithm of the partition coefficient of the neutral form, usually between octanol and water. For orientation: bioavailability means the share of a dose that reaches the circulation, judged against a reference dose that is usually intravenous. By AUC(0-inf) is commonly meant total exposure, with the tail of the curve extrapolated. Higher therefore signals more exposure. What is called AUC(0-t) is the area under the concentration-time curve up to a stated or last time point. Higher therefore signals more exposure. A word on the Cmax: it is the maximum level reached in the sampled fluid or tissue. Broadly, the half-life is the time needed for the level to fall by half in the phase considered. The Tmax is the time from dosing to the highest level.
